Experimental data published in ChEMBL document CHEMBL1131788, “Isolation and structure of SCH 351633: a novel hepatitis C virus (HCV) NS3 protease inhibitor from the fungus Penicillium griseofulvum” (Bioorg Med Chem Lett, 1999).

Target: NS3 (Hepatitis C virus, UniProt A3EZJ3)
Assay: In vitro antiviral activity against hepatitis C virus (HCV) NS3 protease using scintillation proximity assay
Set-up: species or system Hepacivirus hominis

NS3, sequence (A3EZJ3 whole entry): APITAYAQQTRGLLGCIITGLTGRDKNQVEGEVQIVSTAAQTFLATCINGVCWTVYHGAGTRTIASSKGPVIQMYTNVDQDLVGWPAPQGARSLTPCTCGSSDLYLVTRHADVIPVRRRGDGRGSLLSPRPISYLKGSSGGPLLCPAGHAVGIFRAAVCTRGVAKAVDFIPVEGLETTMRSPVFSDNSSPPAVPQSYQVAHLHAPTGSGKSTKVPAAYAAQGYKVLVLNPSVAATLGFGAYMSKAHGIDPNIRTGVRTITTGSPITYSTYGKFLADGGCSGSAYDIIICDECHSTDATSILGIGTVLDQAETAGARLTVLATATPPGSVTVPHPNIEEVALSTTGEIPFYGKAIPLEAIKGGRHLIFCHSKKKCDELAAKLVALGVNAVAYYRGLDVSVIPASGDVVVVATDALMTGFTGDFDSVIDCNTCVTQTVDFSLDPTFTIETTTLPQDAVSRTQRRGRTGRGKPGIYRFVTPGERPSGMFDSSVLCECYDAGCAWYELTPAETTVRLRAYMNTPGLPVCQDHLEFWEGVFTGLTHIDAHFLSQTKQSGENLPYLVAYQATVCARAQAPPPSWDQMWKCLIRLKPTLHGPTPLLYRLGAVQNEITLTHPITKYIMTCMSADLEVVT

SMILES: O=C1C=C2C(=CCOC2OC(=O)c2ccc(Br)cc2)O1 (stereo not drawn)
- IC50: 37.4 µM

SMILES: O=C1C=C2C(=CCOC2O)O1 (stereo not drawn) [PATULIN]
- IC50: 24.7 µM

SMILES: CC(=O)OC1OCC=C2OC(=O)C=C21 (stereo not drawn)
- IC50: 36.7 µM
